Data reported in patent US20250195513A1, “DEGRADATION OF IRAK4 BY CONJUGATION OF IRAK4 INHIBITORS WITH E3 LIGASE LIGAND AND METHODS OF USE” (BeiGene, Ltd., priority 2022, published 2025).

Legend:
[1] = target: T1, IRAK4 (Homo sapiens, UniProt Q9NWZ3); assay: IRAK4 Degradation Assay (Karpas299, HTRF/TR-FRET); assay type: cell-based; settings: Karpas-299 cells, 24 h treatment; for Dmax: read-out: IRAK4 in Karpas-299 (24 h) Dmax (%); for DC50: read-out: IRAK4 in Karpas-299 (24 h) DC50
T1 construct: endogenous in cells; host or cells: Karpas299
T1 sequence (Q9NWZ3 1-460): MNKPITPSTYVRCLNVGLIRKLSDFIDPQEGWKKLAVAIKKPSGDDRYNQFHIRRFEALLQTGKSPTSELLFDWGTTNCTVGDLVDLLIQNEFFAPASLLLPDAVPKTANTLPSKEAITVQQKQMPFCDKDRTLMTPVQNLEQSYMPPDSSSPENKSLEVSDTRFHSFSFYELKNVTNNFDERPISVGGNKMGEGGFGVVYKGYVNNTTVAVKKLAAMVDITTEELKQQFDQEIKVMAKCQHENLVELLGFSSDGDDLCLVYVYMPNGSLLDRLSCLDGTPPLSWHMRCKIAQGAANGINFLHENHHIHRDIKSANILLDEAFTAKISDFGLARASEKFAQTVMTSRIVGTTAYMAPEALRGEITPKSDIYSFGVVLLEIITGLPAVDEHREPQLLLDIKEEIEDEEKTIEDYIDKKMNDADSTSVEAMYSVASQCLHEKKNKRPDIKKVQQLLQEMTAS
Summary of the method: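 Karpas299 cells at 0.2 million per well were exposed to serially diluted compounds for 24 h or 5 h, then lysed. IRAK4 remaining in lysates was quantified by HTRF (665/620 nm) after overnight antibody incubation at room temperature. Percent degradation was fitted to a four-parameter curve to give IC50 (DC50).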

[2] = target: T1, IRAK4; assay: IRAK4 Degradation Assay with Human Serum (Karpas299, HTRF/TR-FRET); assay type: cell-based; settings: Karpas-299 in human serum, 24 hrs treatment; for DC50: read-out: IRAK4 degradtion with human serum assay DC50; for Dmax: read-out: IRAK4 degradtion with human serum assay Dmax (%)
Method: IRAK4 degradation was measured using a TR-FRET-based method (Degorce, François, et al. Current chemical genomics. 2009, 3: 22). Karpas299 resuspended in Human serum AB (GEMINI, 100-512) were seeded into 96-well plates at the density of 0.2 million cells per well and then treated with a series dilution of compounds. After 24 hrs treatment, cells were pelleted via centrifugation and washed with PBS, add 40 μL lysis buffer (Cisbio) to each well after removal of the supernatant. Plates were then incubated at room temperature with shaking for 30 minutes. A total of 16 μL of cell lysates from each well of a 96-well plate was transferred to a 384-well white assay plate. IRAK4 level was quantitated using the HTRF kit as described by the manufacturer manual (Cisbio). FRET signals were measured using a PHERAstar FSX reader (BMG Labtech).
After treatment, add HTRF lysis buffer to each well; seal the plate and incubate 1 hour at room temperature on a plate shaker; Once the cells are lysed, 16 μL of cell lysate are transferred to a PE 384-well HTRF detection plate; 4 μL of pre-mixed HTRF antibodies are added to each well; Cover the plate with a plate sealer, spin 1000 rpm for 1 min, Incubate overnight at room temperature; Read on BMG PheraStar with HTRF protocol (337 nm-665 nm-620 nm).
The inhibition (degradation) percentage of the compound was calculated by the following equation: […]
The IC50 (DC50) value of a compound can be obtained by fitting the following equation
Wherein, X and Y are known values, and IC50, Hillslope, Top and Bottom are the parameters obtained by fitting with software. Y is the inhibition percentage (calculated from the equation), X is the concentration of the compound; IC50 is the concentration of the compound when the […] is reached. The smaller the IC50 value is, the stronger the inhibitory ability of the compound is. Vice versa, the higher the IC50 value is, the weaker the ability the inhibitory ability of the compound is; Hillslope represents the slope of the fitted curve, generally around 1 *; Bottom represents the minimum value of the curve obtained by data fitting, which is generally 0%±20%; Top represents the maximum value of the curve obtained by data fitting, which is generally 100%±20%. The experimental data were fitted by calculating and analyzing with Dotmatics data analysis software.

[3] = maximum percentage of degradation

Structure (SMILES) | Dmax [1, 3] | DC50 [1] | DC50 [2] | Dmax [2] | IRAK4 in Karpas-299 (24 h) Dmax (%) [1, 3] | IRAK4 degradtion with human serum assay Dmax (%) [2]
C[C@@H]1CN([C@H]2C[C@H](c3cc(F)c([C@H]4CCC(=O)NC4=O)c(F)c3)C2)CCN1[C@H]1CC[C@H](n2cc3cc(NC(=O)c4ccc5cc(C#N)cnn45)c(C(C)(C)O)cc3n2)CC1 [Example 366, 3-cyano-N-(2-((1R,4r)-4-((R)-4-((1R,3R)-3-(4-((R)-2,6-dioxopiperidin-3-yl)-3,5-difluorophenyl)cyclobutyl)-2-methylpiperazin-1-yl)cyclohexyl)-6-(2-hydroxypropan-2-yl)-2H-indazol-5-yl)pyrrolo[1,2-b]pyridazine-7-carboxamide] | 98% | 1.4 nM | 14 nM | 97% | – | –
CC(C)(O)c1cc2nn([C@H]3CC[C@H](N4CCN([C@H]5C[C@@H](c6ccc(N[C@H]7CCC(=O)NC7=O)cc6)C5)CC4)CC3)cc2cc1NC(=O)c1ccc2cc(C#N)cnn12 [Example 273, 3-cyano-N-(2-((1R,4r)-4-(4-((1R,3S)-3-(4-(((S)-2,6-dioxopiperidin-3-yl)amino)phenyl)cyclobutyl)piperazin-1-yl)cyclohexyl)-6-(2-hydroxypropan-2-yl)-2H-indazol-5-yl)pyrrolo[12-b]pyridazine-7-carboxamide] | 95% | 5 nM | 9.3 nM | 98% | – | –
COc1cc2nn([C@H]3CC[C@H](N4CCN(CCc5cc(F)c([C@H]6CCC(=O)NC6=O)c(F)c5)CC4)CC3)cc2cc1NC(=O)c1ccc2cc(C#N)cnn12 [Example 337, 3-cyano-N-(2-((1R,4r)-4-(4-(4-((R)-2,6-dioxopiperidin-3-yl)-3,5-difluorophenethyl)piperazin-1-yl)cyclohexyl)-6-methoxy-2H-indazol-5-yl)pyrrolo[1,2-b]pyridazine-7-carboxamide] | 96% | 2.1 nM | 10 nM | 89% | – | –
CC(C)(O)c1cc2nn([C@H]3CC[C@H](N4CCN(C[C@H]5CCN(c6ccc7c(c6)C(=O)N(C6CCC(=O)NC6=O)C7=O)C5)CC4)CC3)cc2cc1NC(=O)c1ccc2cc(C#N)cnn12 (stereo partly drawn) [Example 432, 3-cyano-N-(2-((1R,4r)-4-(4-(((3R)-1-(2-(2,6-dioxopiperidin-3-yl)-1,3-dioxoisoindolin-5-yl)pyrrolidin-3-yl)methyl)piperazin-1-yl)cyclohexyl)-6-(2-hydroxypropan-2-yl)-2H-indazol-5-yl)pyrrolo[1,2-b]pyridazine-7-carboxamide] | 95% | 1.9 nM | 14 nM | 92% | – | –
CC(C)(O)c1cc2nn([C@H]3CC[C@H](N4CCN([C@H]5CCN(c6cc(F)c(C7CCC(=O)NC7=O)c(F)c6)C5)CC4)CC3)cc2cc1NC(=O)c1ccc2cc(C#N)cnn12 (stereo partly drawn) [Example 395, 3-cyano-N-(2-((1S,4r)-4-(4-((3S)-1-(4-(2,6-dioxopiperidin-3-yl)-3,5-difluorophenyl)pyrrolidin-3-yl)piperazin-1-yl)cyclohexyl)-6-(2-hydroxypropan-2-yl)-2H-indazol-5-yl)pyrrolo[1,2-b]pyridazine-7-carboxamide] | 97% | 0.8 nM | 21 nM | 99% | – | –
CC(C)(O)c1cc2nn([C@H]3CC[C@H](N4CCN(C(=O)[C@@H]5CCN(c6ccc(N7CCC(=O)NC7=O)cc6)C5)CC4)CC3)cc2cc1NC(=O)c1ccc2cc(C#N)cnn12 [Example 263, 3-cyano-N-(2-((1R,4r)-4-(4-((R)-1-(4-(2,4-dioxotetrahydropyrimidin-1(2H)-yl)phenyl)pyrrolidine-3-carbonyl)piperazin-1-yl)cyclohexyl)-6-(2-hydroxypropan-2-yl)-2H-indazol-5-yl)pyrrolo[1,2-b]pyridazine-7-carboxamide] | 96% | 2.6 nM | 15 nM | 99% | – | –
COC[C@@H]1CN(C2CN(c3cc(F)c([C@H]4CCC(=O)NC4=O)c(F)c3)C2)CCN1[C@H]1CC[C@H](n2cc3cc(NC(=O)c4ccc5cc(C#N)cnn45)c(C(C)(C)O)cc3n2)CC1 [Example 327, 3-cyano-N-(2-((1S,4r)-4-((S)-4-(1-(4-((R)-2,6-dioxopiperidin-3-yl)-3,5-difluorophenyl)azetidin-3-yl)-2-(methoxymethyl)piperazin-1-yl)cyclohexyl)-6-(2-hydroxypropan-2-yl)-2H-indazol-5-yl)pyrrolo[1,2-b]pyridazine-7-carboxamide] | 90% | 0.9 nM | 4.2 nM | 95% | – | –
C[C@@H]1CN(CC2CN(c3cc(F)c([C@H]4CCC(=O)NC4=O)c(F)c3)C2)CCN1[C@H]1CC[C@H](n2cc3cc(NC(=O)c4ccc5cc(C#N)cnn45)c(C(C)(C)O)cc3n2)CC1 [Example 300, 3-cyano-N-(2-((1R,4r)-4-((R)-4-((1-(4-((R)-2,6-dioxopiperidin-3-yl)-3,5-difluorophenyl)azetidin-3-yl)methyl)-2-methylpiperazin-1-yl)cyclohexyl)-6-(2-hydroxypropan-2-yl)-2H-indazol-5-yl)pyrrolo[1,2-b]pyridazine-7-carboxamide] | 96% | 0.9 nM | 2.4 nM | 102% | – | –
CC(C)(O)c1cc2nn([C@H]3CC[C@H](N4C[C@@H]5CN(CC6CN(c7cc(F)c(C8CCC(=O)NC8=O)c(F)c7)C6)C[C@H]5C4)CC3)cc2cc1NC(=O)c1ccc2cc(C#N)cnn12 (stereo partly drawn) [Example 359, 3-cyano-N-(2-((1S,4r)-4-((3aS,6aS)-5-((1-(4-((R)-2,6-dioxopiperidin-3-yl)-3,5-difluorophenyl)azetidin-3-yl)methyl)hexahydropyrrolo[3,4-c]pyrrol-2(1H)-yl)cyclohexyl)-6-(2-hydroxypropan-2-yl)-2H-indazol-5-yl)pyrrolo[1,2-b]pyridazine-7-carboxamide] | 97% | 2.4 nM | 4.2 nM | 103% | – | –
CC(=O)c1cc2nn([C@H]3CC[C@H](N4CCN(C5CN(c6cc(F)c([C@H]7CCC(=O)NC7=O)c(F)c6)C5)CC4)CC3)cc2cc1NC(=O)c1ccc2cc(C#N)cnn12 [Example 425, N-(6-acetyl-2-((1R,4r)-4-(4-(1-(4-((R)-2,6-dioxopiperidin-3-yl)-3,5-difluorophenyl)azetidin-3-yl)piperazin-1-yl)cyclohexyl)-2H-indazol-5-yl)-3-cyanopyrrolo[1,2-b]pyridazine-7-carboxamide] | 98% | 0.6 nM | 19 nM | 94% | – | –
Cc1nc(C2CCC(=O)NC2=O)ccc1N1CC(N2CCN(C3CCC(n4cc5cc(NC(=O)c6ccc7cc(C#N)cnn67)c(C(C)(C)O)cc5n4)CC3)CC2)C1 (centres unmarked) [Example 426, 3-cyano-N-(2-((1r,4r)-4-(4-(1-(6-(2,6-dioxopiperidin-3-yl)-2-methylpyridin-3-yl)azetidin-3-yl)piperazin-1-yl)cyclohexyl)-6-(2-hydroxypropan-2-yl)-2H-indazol-5-yl)pyrrolo[1,2-b]pyridazine-7-carboxamide] | – | 5.5 nM | 12 nM | – | 95% | 95%
